Measured values taken from patent US20180362449A1, “THE EXOCYST AS A NOVEL DRUG TARGET OF ENDOSIDIN2 AND APPLICATION AS A THERAPEUTIC” (The Regents of the University of California, priority 2015, published 2018).
Entries after “also recorded” stand apart in the source; their conditions may differ.

Columns and labels:
PIN2 localization = PIN2 localization in root cells of PIN2::PIN2:GFP seedlings; conditions: for induction of PIN2 agglomerations / PIN2 localization: 40 μM, 2 hours
[1] = target: T1, EXO70A1 (amino acid residues 75-638) (Arabidopsis thaliana, UniProt Q9LZD3); test: STD-NMR of ES2 / analog8 with purified EXO70A1; type: binding; conditions: EXO70A1, non-linear fit, read-out: Kd (mean ± SE)
T1 sequence (Q9LZD3 75-638): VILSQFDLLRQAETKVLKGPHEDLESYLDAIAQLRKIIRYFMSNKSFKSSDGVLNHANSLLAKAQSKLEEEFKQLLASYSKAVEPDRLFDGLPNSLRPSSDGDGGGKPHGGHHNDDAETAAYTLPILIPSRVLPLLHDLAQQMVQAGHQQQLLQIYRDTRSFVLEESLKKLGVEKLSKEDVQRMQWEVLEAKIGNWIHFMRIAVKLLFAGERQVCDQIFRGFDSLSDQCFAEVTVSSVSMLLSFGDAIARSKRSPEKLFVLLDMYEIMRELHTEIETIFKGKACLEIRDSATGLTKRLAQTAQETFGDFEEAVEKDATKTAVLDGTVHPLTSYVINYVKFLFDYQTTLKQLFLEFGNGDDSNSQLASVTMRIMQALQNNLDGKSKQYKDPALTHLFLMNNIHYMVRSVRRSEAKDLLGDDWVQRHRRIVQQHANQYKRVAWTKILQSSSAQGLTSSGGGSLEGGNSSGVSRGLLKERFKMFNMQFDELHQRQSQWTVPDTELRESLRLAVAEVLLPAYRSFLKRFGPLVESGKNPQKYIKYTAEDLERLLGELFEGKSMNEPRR

[2] = Stability of ES2 in water by 1H NMR; type: physicochemical; conditions: 1H NMR over one week
Description: The ES2 molecule contains an N-acyl hydrazone group at its core, and could have the propensity for hydrolysis to 3-fluorobenzohydrazide and 4-hydroxy-3-iodo-5-methoxybenzaldehyde in aqueous solution (FIG. 10A). […] In addition, the activity of the two possible ES2 hydrolysis products in inducing PIN2 localization in late endosomal compartments was tested.

EXO70A1 = target: T2, EXO70A1 (Arabidopsis thaliana, UniProt Q9LZD3); type: binding; conditions: in comparison to Bio-680 matrix and biotin controls
T2 construct: protein extracts from 16 days old seedlings grown from normal 0.5×MS agar media; from tissue; host or cells: Arabidopsis seedlings (16 days old), 16,000×g supernatant
T2 sequence (Q9LZD3 1-638): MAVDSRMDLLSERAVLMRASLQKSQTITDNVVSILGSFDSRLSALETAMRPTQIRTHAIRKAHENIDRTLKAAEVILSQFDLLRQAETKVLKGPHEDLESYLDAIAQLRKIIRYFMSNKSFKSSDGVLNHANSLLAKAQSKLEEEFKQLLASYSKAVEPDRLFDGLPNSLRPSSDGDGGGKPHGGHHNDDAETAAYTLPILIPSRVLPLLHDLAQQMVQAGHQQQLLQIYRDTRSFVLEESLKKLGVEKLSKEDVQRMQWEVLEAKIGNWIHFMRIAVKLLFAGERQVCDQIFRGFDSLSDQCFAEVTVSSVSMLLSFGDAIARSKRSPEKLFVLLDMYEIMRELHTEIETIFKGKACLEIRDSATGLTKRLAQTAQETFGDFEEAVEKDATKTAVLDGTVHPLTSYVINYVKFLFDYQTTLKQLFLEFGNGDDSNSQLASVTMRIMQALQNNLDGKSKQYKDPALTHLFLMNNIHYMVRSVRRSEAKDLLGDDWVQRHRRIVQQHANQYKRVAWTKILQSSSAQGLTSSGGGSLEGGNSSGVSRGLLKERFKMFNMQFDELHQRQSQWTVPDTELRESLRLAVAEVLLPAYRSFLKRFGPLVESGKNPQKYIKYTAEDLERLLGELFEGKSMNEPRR

## COc1cc(/C=N/NC(=O)c2ccc(NC(=O)CCCC[C@@H]3SC[C@@H]4NC(=O)N[C@@H]43)cc2)ccc1O [Bio-680, N-(4-((E)-2-(4-hydroxy-3-methoxybenzylidene)hydrazinecarbonyl)phenyl)-5-((3aS,4S,6aR)-2-oxohexahydro-1H-thieno[3,4-d]imidazol-4-yl)pentanamide]
PIN2 localization
  induction of PIN2 agglomerations / PIN2 localization: inactive; also recorded: did not

## COc1cc(/C=N/NC(=O)c2ccc(N)c(F)c2)cc(I)c1O [Ana-688, 4-Amino-3-fluoro-N′-[(E)-(4-hydroxy-3-iodo-5-methoxyphenyl)methylidene]benzohydrazide]
PIN2 localization
  induction of PIN2 agglomerations / PIN2 localization: induced PIN2 agglomerations

## COc1cc(/C=N/NC(=O)c2cccc(F)c2)cc(I)c1O [ES2]
[1]
  Kd: 400 ± 170 µM
[2]
  stability in water solution (hydrolysis): no hydrolysis products were observed
PIN2 localization; 40 μM ES2, 2 hours, light
  maximum feret diameter of PIN2-localized compartments: 2.9 μm
  minimal feret diameter of PIN2-localized compartments: 0.4 μm
PIN2 localization; 40 μM ES2, 2 hours, light, N=391
  feret diameter of PIN2-localized compartments (mean±SD): 1.18±0.47 μm

## COc1cc(/C=N/NC(=O)c2ccc(N)cc2)ccc1O [Ana-680, 4-Amino-N′-[(E)-(4-hydroxy-3-methoxyphenyl)methylidene]benzohydrazide]
PIN2 localization
  induction of PIN2 agglomerations / PIN2 localization: did not

## COc1cc(/C=N/NC(=O)c2ccc(NC(=O)CCCC[C@@H]3SC[C@@H]4NC(=O)N[C@@H]43)c(F)c2)cc(I)c1O [Bio-688, N-(2-fluoro-4-((E)-2-(4-hydroxy-3-iodo-5-methoxybenzylidene)hydrazinecarbonyl)phenyl)-5-((3aS,4S,6aR)-2-oxohexahydro-1H-thieno[3,4-d]imidazol-4-yl)pentanamide]
EXO70A1
  pull down of EXO70A1 (western blot band intensity): more potent in pulling down EXO70A1
PIN2 localization
  induction of PIN2 agglomerations / PIN2 localization: active; also recorded: induced PIN2 agglomerations
